Data set [1] has as its system HDAC (HeLa nuclear extract). As to the kind of experiment: HDAC fluorimetric assay kit (AK-500, Biomol), inhibition of HDAC enzymatic activity. It is filed as biochemical. Particulars: Fluor de Lys substrate, graded IC50. The protocol: (b) An In Vitro Assay which Determines the Ability of a Test Compound to Inhibit HDAC Enzymatic Activity.
HDAC inhibitors were screened using an HDAC fluorimetric assay kit (AK-500, Biomol, Plymouth Meeting, Pa.). Test compounds were dissolved in dimethylsulphoxide (DMSO) to give a 20 mM working stock concentration. Fluorescence was measured on a WALLAC Victor 2 plate reader and reported as relative fluorescence units (RFU). Data were plotted using GraphPad Prism (v4.0a) and IC50's calculated using a sigmoidal dose response curve fitting algorithm. Each assay was setup as follows: Defrosted all kit components and kept on ice until use. Diluted HeLa nuclear extract 1:29 in Assay Buffer (50 mM Tris/Cl, pH 8.0, 137 mM NaCl, 2.7 mM KCl, 1 mM MgCl2). Prepared dilutions of Trichostatin A (TSA, positive control) and tested compounds in assay buffer (5× of final concentration). Diluted Fluor de Lys™ Substrate in assay buffer to 100 uM (50 fold=2× final). Diluted Fluor de Lys™ developer concentrate 20-fold (e.g. 50 μl plus 950 μl Assay Buffer) in cold assay buffer. Second, diluted the 0.2 mM Trichostatin A 100-fold in the 1× Developer (e.g. 10 μl in 1 ml; final Trichostatin A concentration in the 1× Developer=2 μM; final concentration after addition to HDAC/Substrate reaction=1 μM). Added Assay buffer, diluted trichostatin A or test inhibitor to appropriate wells of the microtiter plate. Added diluted HeLa extract or other HDAC sample to all wells except for negative controls. Allowed diluted Fluor de Lys™ Substrate and the samples in the microtiter plate to equilibrate to assay temperature (e.g. 25 or 37° C. Initiated HDAC reactions by adding diluted substrate (25 μl) to each well and mixing thoroughly. Allowed HDAC reactions to proceed for 1 hour and then stopped them by addition of Fluor de Lys™ Developer ([…]). Incubated plate at room temperature (25° C.) for 10-15 min. Read samples in a microtiter-plate reading fluorimeter capable of excitation at a wavelength in the range 350-380 nm and detection of emitted light in the range 440-460 nm.
(§1) The following TABLE B lists compounds representative of the invention and their activity in HDAC and HSP90 assays. In these assays, the following grading was used: I≧10 μM, 10 μM>II>1 μM, 1 μM>III>0.1 μM, and IV≦0.1 μM for IC50.

For data set [2], the target named is HSP90. As to the kind of experiment: Hsp90 chaperone assay (refolding of heat-denatured luciferase). It is filed as biochemical. To be noted: luminescence readout, graded IC50. As to the method: (a) An In Vitro Assay which Determines the Ability of a Test Compound to Inhibit Hsp90 Chaperone Activity.
The Hsp90 chaperone assay was performed to measure the ability of HSP90 protein to refold the heat-denatured luciferase protein. HSP90 was first incubated with different concentrations of test compounds in denaturation buffer (25 mM Tris, pH7.5, 8 mM MgSO4, 0.01% bovine gamma globulin and 10% glycerol) at room temperature for 30 min. Luciferase protein was added to denaturation mix and incubated at 50° C. for 8 min. The final concentration of HSP90 and luciferase in denaturation mixture were 0.375 μM and 0.125 μM respectively. A 5 μl sample of the denatured mix was diluted into 25 μl of renaturation buffer (25 mM Tris, pH7.5, 8 mM MgSO4, 0.01% bovine gamma globulin and 10% glycerol, 0.5 mM ATP, 2 mM DTT, 5 mM KCl, 0.3 μM HSP70 and 0.15 μM HSP40). The renaturation reaction was incubated at room temperature for 150 min, followed by dilution of 10 μl of the renatured sample into 90 μl of luciferin reagent (Luclite, PerkinElmer Life Science). The mixture was incubated at dark for 5 min before reading the luminescence signal on a TopCount plate reader (PerkinElmer Life Science).
as §1

The structures appear in SMILES notation.

As usually defined, the IC50 is the concentration that gives 50% inhibition. Lower therefore signals higher potency. For the compound `Nc1ncnc2c1nc(Sc1cc3c(cc1Br)OCO3)n2CCNCCCCCC(=O)NO` [Compound 23, 6-(2-(6-amino-8-(6-bromobenzo[d][1,3]dioxol-5-ylthio)-9H-purin-9-yl)ethylamino)-N-hydroxyhexanamide], the figures for the IC50 in data set [1] and in data set [2] were ≤ 0.1 µM and 0.1 to 1 µM, respectively.

With `Nc1ncnc2c1nc(Sc1cc3c(cc1Br)OCO3)n2CCNCCCCCCCC(=O)NO` [Compound 41, 8-(2-(6-amino-8-(6-bromobenzo[d][1,3]dioxol-5-ylthio)-9H-purin-9-yl)ethylamino)-N-hydroxyoctanamide], the IC50 in data set [1] is ≤ 0.1 µM.

With `Nc1ncnc2c1nc(Sc1cc3c(cc1Br)OCO3)n2CCOCC(=O)NO` [Compound 40], the IC50 in data set [1] and in data set [2] was ≥ 10 µM each time.

`Nc1ncnc2c1nc(Sc1cc3c(cc1I)OCO3)n2CCNCC(=O)NO` [Compound 37]: the IC50 in data set [1] is ≥ 10 µM; in data set [2], 0.1 to 1 µM.

In the case of `Nc1ncnc2c1nc(Sc1cc3c(cc1Br)OCO3)n2CCCCCC(=O)NO` [Compound 5, 6-(6-amino-8-(6-bromobenzo[d][1,3]dioxol-5-ylthio)-9H-purin-9-yl)-N-hydroxyhexanamide], the IC50 in data set [1] and in data set [2] was 0.1 to 1 µM each time.

In the case of `Nc1nccc2c1nc(Sc1cc3c(cc1Cl)OCO3)n2CCCCCCC(=O)NO` [Compound 34, 7-(4-amino-2-(6-chlorobenzo[d][1,3]dioxol-5-ylthio)-1H-imidazo[4,5-c]pyridin-1-yl)-N-hydroxyheptanamide], the figures for the IC50 in data set [1] and in data set [2] were ≤ 0.1 µM and 1 to 10 µM, respectively.

As to `C#CCCCn1c(Sc2cccc(C(=O)NO)c2)nc2c(N)ncnc21` [Compound 13], the IC50 in data set [1] and in data set [2] was ≥ 10 µM throughout.

On to `Nc1ncnc2c1nc(Sc1cc3c(cc1I)OCO3)n2CCNCCCCCCC(=O)NO` [Compound 39, 7-(2-(6-amino-8-(6-iodobenzo[d][1,3]dioxol-5-ylthio)-9H-purin-9-yl)ethylamino)-N-hydroxyheptanamide], for which the results for the IC50 in data set [1] and in data set [2] were ≤ 0.1 µM and 0.1 to 1 µM, respectively.

Turning to `Nc1ncnc2c1nc(Sc1cc3c(cc1Br)OCO3)n2CCNCC(=O)NO` [Compound 33], the IC50 in data set [1] was ≥ 10 µM; in data set [2], 0.1 to 1 µM.

With `C#CCCCn1c(Sc2cccc(OCCCCCC(=O)NO)c2)nc2c(N)ncnc21` [Compound 18, 6-(3-(6-amino-9-(pent-4-ynyl)-9H-purin-8-ylthio)phenoxy)-N-hydroxyhexanamide], the IC50 was ≤ 0.1 µM in data set [1] and ≥ 10 µM in data set [2].

Regarding `Nc1ncnc2c1nc(Sc1cc3c(cc1Cl)OCO3)n2CCCCCCC(=O)NO` [Compound 31, 7-(6-amino-8-(6-chlorobenzo[d][1,3]dioxol-5-ylthio)-9H-purin-9-yl)-N-hydroxyheptanamide], the 50% inhibitory concentration (IC50) in data set [1] was ≤ 0.1 µM; in data set [2], 1 to 10 µM.

Turning to `Nc1nccc2c1nc(Sc1cc3c(cc1I)OCO3)n2CCCCCCC(=O)NO` [Compound 36, 7-(4-amino-2-(6-iodobenzo[d][1,3]dioxol-5-ylthio)-1H-imidazo[4,5-c]pyridin-1-yl)-N-hydroxyheptanamide], the IC50 in data set [1] is ≤ 0.1 µM; in data set [2], 0.1 to 1 µM.

For the compound `Nc1nccc2c1nc(Sc1cc3c(cc1Br)OCO3)n2CCCCCCC(=O)NO` [Compound 35, 7-(4-amino-2-(6-bromobenzo[d][1,3]dioxol-5-ylthio)-1H-imidazo[4,5-c]pyridin-1-yl)-N-hydroxyheptanamide], the IC50 is ≤ 0.1 µM in data set [1] and 1 to 10 µM in data set [2].

In data set [1], `C#CCCCn1c(Sc2cccc(OCC(=O)NO)c2)nc2c(N)ncnc21` [Compound 14, 2-(3-(6-amino-9-(pent-4-ynyl)-9H-purin-8-ylthio)phenoxy)-N-hydroxyacetamide] gave an IC50 of 0.1 to 1 µM.

For orientation: melting point means the temperature of the solid-liquid transition. `Nc1ncnc2c1nc(Sc1cc3c(cc1Br)OCO3)n2CC(=O)NO` [Compound 1, 2-(6-amino-8-(6-bromobenzo[d][1,3]dioxol-5-ylthio)-9H-purin-9-yl)-N-hydroxyacetamide]: the melting point was 230 °C (dec.).

As for `Nc1ncnc2c1nc(Sc1cc3c(cc1I)OCO3)n2CCCCCCC(=O)NO` [Compound 32, 7-(6-amino-8-(6-iodobenzo[d][1,3]dioxol-5-ylthio)-9H-purin-9-yl)-N-hydroxyheptanamide], the IC50 in data set [1] and in data set [2] was ≤ 0.1 µM throughout.

Regarding `C#CCCCn1c(Sc2cccc(OCCCC(=O)NO)c2)nc2c(N)ncnc21` [Compound 16, 4-(3-(6-amino-9-(pent-4-ynyl)-9H-purin-8-ylthio)phenoxy)-N-hydroxybutanamide], the IC50 in data set [1] was ≤ 0.1 µM; in data set [2], ≥ 10 µM.

Turning to `COc1ccc(I)c(Sc2nc3c(N)ncnc3n2CCCCCCC(=O)NO)c1` [Compound 12, 7-(6-amino-8-(2-iodo-5-methoxyphenylthio)-9H-purin-9-yl)-N-hydroxyheptanamide], in data set [1], the IC50 was ≤ 0.1 µM.

With `Nc1ncnc2c1nc(Sc1cc3c(cc1Br)OCO3)n2CCNCCC(=O)NO` [Compound 20, 3-(2-(6-amino-8-(6-bromobenzo[d][1,3]dioxol-5-ylthio)-9H-purin-9-yl)ethylamino)-N-hydroxypropanamide], the figures for the IC50 in data set [1] and in data set [2] were ≥ 10 µM and 0.1 to 1 µM, respectively.

Turning to `Nc1ncnc2c1nc(Sc1cc3c(cc1Br)OCO3)n2CCOCCCC(=O)NO` [Compound 27, 4-(2-(6-amino-8-(6-bromobenzo[d][1,3]dioxol-5-ylthio)-9H-purin-9-yl)ethoxy)-N-hydroxybutanamide], the IC50 in data set [1] and in data set [2] was ≥ 10 µM each time.

`Nc1ncnc2c1nc(Sc1cc3c(cc1Br)OCO3)n2CCOCCCCCCC(=O)NO` [Compound 30, 7-(2-(6-amino-8-(6-bromobenzo[d][1,3]dioxol-5-ylthio)-9H-purin-9-yl)ethoxy)-N-hydroxyheptanamide]: the IC50 in data set [1] was ≤ 0.1 µM; in data set [2] it was ≥ 10 µM.

On to `Nc1ncnc2c1nc(Sc1cc3c(cc1Br)OCO3)n2CCNCCCCCCC(=O)NO` [Compound 24, 7-(2-(6-amino-8-(6-bromobenzo[d][1,3]dioxol-5-ylthio)-9H-purin-9-yl)ethylamino)-N-hydroxyheptanamide], for which the IC50 is ≤ 0.1 µM in data set [1] and 0.1 to 1 µM in data set [2].

Take `Nc1ncnc2c1nc(Sc1cc3c(cc1Br)OCO3)n2CCCCCCC(=O)NO` [Compound 6, 7-(6-amino-8-(6-bromobenzo[d][1,3]dioxol-5-ylthio)-9H-purin-9-yl)-N-hydroxyheptanamide]: the IC50 in data set [1] is ≤ 0.1 µM; in data set [2], 0.1 to 1 µM.

As to `Nc1ncnc2c1nc(Sc1cc3c(cc1Br)OCO3)n2CCOCCCCCC(=O)NO` [Compound 29, 6-(2-(6-amino-8-(6-bromobenzo[d][1,3]dioxol-5-ylthio)-9H-purin-9-yl)ethoxy)-N-hydroxyhexanamide], the IC50 in data set [1] is 1 to 10 µM; in data set [2], ≥ 10 µM.

On to `Nc1ncnc2c1nc(Sc1cc3c(cc1Br)OCO3)n2CCOCCCCC(=O)NO` [Compound 28, 5-(2-(6-amino-8-(6-bromobenzo[d][1,3]dioxol-5-ylthio)-9H-purin-9-yl)ethoxy)-N-hydroxypentanamide], for which the figures for the IC50 in data set [1] and in data set [2] were 1 to 10 µM and ≥ 10 µM, respectively.

As for `Nc1ncnc2c1nc(Sc1cc3c(cc1I)OCO3)n2CCNCCCCCC(=O)NO` [Compound 38, 6-(2-(6-amino-8-(6-iodobenzo[d][1,3]dioxol-5-ylthio)-9H-purin-9-yl)ethylamino)-N-hydroxyhexanamide], the IC50 in data set [1] and in data set [2] was 0.1 to 1 µM each time.

The values above are taken from US20080234297A1, “HSP90 Inhibitors Containing a Zinc Binding Moiety” (priority 2007, published 2008).
